Columns and labels:
RPS6 = assay: Western blot of P-RPS6 (Ser235/Ser236) in human primary myotubes (controls and LGMDR1 patients); assay type: cell-based; settings: 48 h; for P-RPS6 (S235-S236), Western blot densitometry: LiCl 10 mM; for P-RPS6 (S235-S236), protein expression value relative to the same sample without treatment: tideglusib 1.2 μM
Description: (§1) To obtain primary myoblasts, muscle biopsies were processed and cultured in monolayer according to the method described by Askanas (Neurology, 1975, 25, 58-67). To isolate the pure population of myoblasts and CD56-negative cells (CD56-), the protocol described previously (Jaka et al., Expert Reviews in Molecular Medicine, 2017, 19, e2) was used, using immunomagnetic separation based on the early presence of the surface marker CD56 (Miltenyi Biotec, 130-050-401).
(§2) Myoblasts were cultured in proliferation medium (DMEM, M-199, Insulin, Glutamine and penicillin-streptomycin) with 10% FBS and growth factors at 37° C. in 5% CO2 air incubator. When myoblasts reached confluence, the FBS concentration was reduced to 2% and growth factors were removed from the medium, promoting fusion and production of myotubes.
(§3) Tideglusib was provided by Dr. Ana Martínez (from The Center for Biological Research, CSIC). It was administered at 1.2 μM, whereas LiCI (Sigma-Aldrich, L7026) was used for comparative purposes at a final concentration of 10 mM. Tideglusib and LiCI were administered at the above referred concentrations to myotubes at eight days of differentiation, and tideglusib also to skin fibroblasts and to CD56-cells. Negative controls, in the case of tideglusib, were performed with DMSO (Fisher Scientific, BP-231). At 48 hours after drug administration, RNA and proteins were extracted.
(§4) Protein collection from muscle samples and cell cultures, as well as Western blot procedure, were performed as previously described (Jaka et al., Expert Reviews in Molecular Medicine, 2017, 19, e2).

GSK3β [1] = settings: low dose of LiCl treatment; cited from earlier work
FRBZ gene, β1D integrin = settings: primary myotubes, LiCl treatment; cited from earlier work
β-catenin = assay: Western blot of total and active β-catenin in human primary myotubes (Wnt pathway activation); assay type: cell-based; settings: day 8 of differentiation, 48 h; for active β-catenin: tideglusib 1.2 μM, LiCl 10 mM
Description: as §1, §2, §3, §4

p70S6K = assay: Western blot of p70S6K and its phosphorylated forms in human primary myotubes (controls and LGMDR1 patients); assay type: cell-based; settings: 48 h; for P-p70S6K (T389), protein expression value relative to the same sample without treatment / P-p70S6K (T421-S424), protein expression value relative to the same sample without treatment: tideglusib 1.2 μM
Description: as §1, §2, §3, §4

GSK3 = settings: low therapeutic dose of lithium (0.5 mM); cited from earlier work
CD56-cells = assay: Western blot of Wnt and mTOR pathway proteins in CD56- cells from muscle; assay type: cell-based, human; settings: 1.2 μM, 48 h
From the text: (§5) To obtain primary myoblasts, muscle biopsies were processed and cultured in monolayer according to the method described by […] (Neurology, 1975, 25, 58-67). To isolate the pure population of myoblasts and CD56-negative cells (CD56-), the protocol described previously (Jaka et al., Expert Reviews in Molecular Medicine, 2017, 19, e2) was used, using immunomagnetic separation based on the early presence of the surface marker CD56 (Miltenyi Biotec, 130-050-401). Tideglusib was provided by Dr. Ana Martínez (from The Center for Biological Research, CSIC). It was administered at 1.2 μM, whereas LiCI (Sigma-Aldrich, L7026) was used for comparative purposes at a final concentration of 10 mM. Tideglusib and LiCI were administered at the above referred concentrations to myotubes at eight days of differentiation, and tideglusib also to skin fibroblasts and to CD56-cells. Negative controls, in the case of tideglusib, were performed with DMSO (Fisher Scientific, BP-231). At 48 hours after drug administration, RNA and proteins were extracted. Protein collection from muscle samples and cell cultures, as well as Western blot procedure, were performed as previously described (Jaka et al., Expert Reviews in Molecular Medicine, 2017, 19, e2).

mTOR = assay: Western blot of mTOR and P-mTOR in human primary myotubes; assay type: cell-based; settings: LGMDR1 patient's myotubes, 1.2 μM, 48 h
Description: as §5, with “130-050-401). Myoblasts were cultured in proliferation medium (DMEM, M-199, Insulin, Glutamine and penicillin-streptomycin) with 10% FBS and growth factors at 37° C. in 5% CO2 air incubator. When myoblasts reached confluence, the FBS concentration was reduced to 2% and growth factors were removed from the medium, promoting fusion and production of myotubes.” for “130-050-401).”

GSK3β [2] = assay: Western blot of GSK3β and P-GSK3β (Ser9) in human primary myotubes; assay type: cell-based; settings: LGMDR1 patients' myotubes, day 8 of differentiation, 1.2 μM, 48 h
Description: To isolate the pure population of myoblasts and CD56-negative cells (CD56-), the protocol described previously (Jaka et al., Expert Reviews in Molecular Medicine, 2017, 19, e2) was used, using immunomagnetic separation based on the early presence of the surface marker CD56 (Miltenyi Biotec, 130-050-401). Myoblasts were cultured in proliferation medium (DMEM, M-199, Insulin, Glutamine and penicillin-streptomycin) with 10% FBS and growth factors at 37° C. in 5% CO2 air incubator. When myoblasts reached confluence, the FBS concentration was reduced to 2% and growth factors were removed from the medium, promoting fusion and production of myotubes. Tideglusib was provided by Dr. Ana Martínez (from The Center for Biological Research, CSIC). It was administered at 1.2 μM, whereas LiCI (Sigma-Aldrich, L7026) was used for comparative purposes at a final concentration of 10 mM. Tideglusib and LiCI were administered at the above referred concentrations to myotubes at eight days of differentiation, and tideglusib also to skin fibroblasts and to CD56-cells. Negative controls, in the case of tideglusib, were performed with DMSO (Fisher Scientific, BP-231). At 48 hours after drug administration, RNA and proteins were extracted. […]

[3] = test system: CAPN3, FOS, ANOS1 and ITGB1BP2 genes; assay: Quantitative real-time PCR of deregulated genes in LGMDR1 myotubes; assay type: cell-based, human; settings: 1.2 μM, 48 h
Description: Tideglusib was provided by Dr. Ana Martínez (from The Center for Biological Research, CSIC). It was administered at 1.2 μM, whereas LiCI (Sigma-Aldrich, L7026) was used for comparative purposes at a final concentration of 10 mM. Tideglusib and LiCI were administered at the above referred concentrations to myotubes at eight days of differentiation, and tideglusib also to skin fibroblasts and to CD56-cells. Negative controls, in the case of tideglusib, were performed with DMSO (Fisher Scientific, BP-231). At 48 hours after drug administration, RNA and proteins were extracted. RNA extraction from primary myoblast/myotubes was performed with an RNeasy Mini Kit (Qiagen). In the case of the muscle biopsies, which were snap frozen and stored at −80° C. until use, total RNA was obtained using an RNA-Plus Kit (QBiogene). The isolated RNA was reverse-transcribed to first-strand complementary DNA (cDNA) in a final volume of 50 μl using a High Capacity cDNA Reverse Transcription Kit (Applied Biosystems), according to the manufacturer's instructions. The expression levels of CAPN3, FOS, ITGB1BP2, ANOS1 and GAPDH genes in the samples were assessed by real-time quantitative PCR with TaqMan probes (Table Il below) using the ‘CFX384 Real-Time PCR Detection System’ (Bio-Rad).

skin fibroblasts = assay: Western blot of Wnt and mTOR pathway proteins in skin fibroblasts; assay type: cell-based, human; settings: 1.2 μM, 48 h
Description: Skin fibroblasts from healthy controls and from LGMDR1 patients were provided by Dr. Ana Aiastui (Biodonostia Health Research Institute, Cell Culture and Histology Platform). Cells were cultured in Dulbecco's modified Eagle's medium (DMEM, Gibco, 41966-029) supplemented with 10% FBS (Gibco, 10270-106) and 1% penicillin-streptomycin (Gibco, 15140-122) at 37° C. in a 5% CO2 air incubator. Human fibroblasts were cultured at a density of 4×10^4 cells/ml. Tideglusib was provided by Dr. Ana Martínez (from The Center for Biological Research, CSIC). It was administered at 1.2 μM, whereas LiCI (Sigma-Aldrich, L7026) was used for comparative purposes at a final concentration of 10 mM. Tideglusib and LiCI were administered at the above referred concentrations to myotubes at eight days of differentiation, and tideglusib also to skin fibroblasts and to CD56-cells. Negative controls, in the case of tideglusib, were performed with DMSO (Fisher Scientific, BP-231). At 48 hours after drug administration, RNA and proteins were extracted. Protein collection from muscle samples and cell cultures, as well as Western blot procedure, were performed as previously described (Jaka et al., Expert Reviews in Molecular Medicine, 2017, 19, e2).

integrin β1D and melusin = assay: Western blot of structural (costamere) proteins in human myotubes; assay type: cell-based; settings: 1.2 μM, 48 h
Description: as §5, with “130-050-401). Myoblasts were cultured in proliferation medium (DMEM, M-199, Insulin, Glutamine and penicillin-streptomycin) with 10% FBS and growth factors at 37° C. in 5% CO2 air incubator. When myoblasts reached confluence, the FBS concentration was reduced to 2% and growth factors were removed from the medium, promoting fusion and production of myotubes.” for “130-050-401).”, “Protein collection from muscle samples and cell cultures, as well as Western blot procedure, were performed as previously described (Jaka et al., Expert Reviews in Molecular Medicine, 2017, 19, e2).” left out

[4] = LGMDR1 patient's myotubes, 1.2 μM
[5] = myotubes of LGMDR1 patient 09-25

Structure (SMILES): [Cl-].[Li+] [LiCl]
- P-RPS6 (S235-S236), Western blot densitometry (RPS6; myotubes of LGMDR1 patient 09-21, same sample without drug 1.5): 1.5
- P-RPS6 (S235-S236), Western blot densitometry (RPS6; myotubes of LGMDR1 patient 09-24, same sample without drug 3.5): 3
- P-RPS6 (S235-S236), Western blot densitometry (RPS6; myotubes of LGMDR1 patient 09-25, same sample without drug 2.8): 2.5
- P-RPS6 (S235-S236), Western blot densitometry (RPS6; myotubes of control 09-23, same sample without drug 3.0): 3.8
- P-RPS6 (S235-S236), Western blot densitometry (RPS6; myotubes of control 13-07, same sample without drug 3): 3
- GSK3β inhibition (GSK3β [1]): effective in inhibiting
- fatigue resistance in some muscles via NFAT activation (GSK3β [1]): enhances
- expression of the FRBZ gene (FRBZ gene, β1D integrin): lower levels
- β1D adult isoform of the integrin (FRBZ gene, β1D integrin): higher levels
- active β-catenin (β-catenin): increase
- P-p70S6K (T421-S424), Western blot densitometry (p70S6K; LiCl 10 mM, myotubes of LGMDR1 patient 09-21, same sample without drug 0.3): 0.5
- P-p70S6K (T421-S424), Western blot densitometry (p70S6K; LiCl 10 mM, myotubes of LGMDR1 patient 09-24, same sample without drug 1.8): 1.4
- P-p70S6K (T421-S424), Western blot densitometry (p70S6K; LiCl 10 mM, myotubes of LGMDR1 patient 09-25, same sample without drug 0.7): 0.65
- P-p70S6K (T421-S424), Western blot densitometry (p70S6K; LiCl 10 mM, myotubes of control 09-23, same sample without drug 0.8): 0.78
- P-p70S6K (T421-S424), Western blot densitometry (p70S6K; LiCl 10 mM, myotubes of control 13-07, same sample without drug 0.8): 0.7
- proteins involved in the mTOR pathway and their phosphorylation forms (p70S6K, RPS6) (p70S6K; control and LGMDR1 patient's myotubes, LiCl 10 mM): did not provide any increase
- GSK3 inhibition (GSK3): inhibit
- myoblast fusion (GSK3): augment

Structure (SMILES): O=c1sn(-c2cccc3ccccc23)c(=O)n1Cc1ccccc1 [Tideglusib, 4-benzyl2-naphthalen-1-yl-[1,2,4]thiadiazolidine-3,5-dione]
- active form of β-catenin (CD56-cells): no significant alteration
- amount of total β-catenin (CD56-cells): no significant alteration
- mTOR (CD56-cells): no differences
- phosphorylation of RPS6 (CD56-cells): no differences
- phosphorylation of p70S6K (CD56-cells): no differences
- phosphorylation of mTOR (Ser2448) (mTOR): significant increase
- phosphorylation of mTOR (Ser2481) (mTOR): significant increase
- total mTOR (mTOR): no significant changes
- amount of total GSK3β (GSK3β [2]): increases
- phosphorylation of GSK3β (Ser9) (GSK3β [2]): increases
- phosphorylation of RPS6 (Ser235/Ser236) (RPS6; [4]): increased
- P-RPS6 (S235-S236), protein expression value relative to the same sample without treatment (RPS6; [5]): 1.6
- P-RPS6 (S235-S236), protein expression value relative to the same sample without treatment (RPS6; myotubes of control 13-05): 0.8
- expression of ANOS1 gene [3]: increase
- expression of CAPN3 gene [3]: increase
- expression of FOS gene [3]: increase
- expression of ITGB1BP2 gene [3]: increase
- active form of β-catenin (skin fibroblasts): did not show an increase
- phosphorylation of GSK3β (Ser9) (skin fibroblasts): did not show an increase
- phosphorylation of RPS6 (skin fibroblasts): decrease
- β-catenin (skin fibroblasts): did not show an increase
- integrin β1D protein (integrin β1D and melusin): increase
- melusin protein (integrin β1D and melusin): increase
- total β-catenin expression (β-catenin; 1.2 μM): increase
- active β-catenin (β-catenin): increase
- expression of total p70S6K (p70S6K; [4]): increased
- phosphorylation of p70S6K (Thr389) (p70S6K; [4]): increased
- phosphorylation of p70S6K (Thr421/Ser424) (p70S6K; [4]): increased
- effect on p70S6K, its phosphorylation and P-RPS6 (p70S6K; control myotubes, 1.2 μM): very slight
- P-p70S6K (T389), protein expression value relative to the same sample without treatment (p70S6K; [5]): 1.8
- P-p70S6K (T421-S424), protein expression value relative to the same sample without treatment (p70S6K; [5]): 1.8
- P-p70S6K (T389), protein expression value relative to the same sample without treatment (p70S6K; myotubes of control 13-05): 0.85
- P-p70S6K (T421-S424), protein expression value relative to the same sample without treatment (p70S6K; myotubes of control 13-05): 0.8

Source: patent US20240245657A1, “THIADIAZOLIDINONES FOR THEIR USE IN THE TREATMENT OF LIMB-GIRDLE MUSCULAR DYSTROPHY” (CONSEJO SUPERIOR DE INVESTIGACIONES CIENTÍFICAS, priority 2021, published 2024)
